From patent US10413535B2, “Pharmaceutical compositions comprising an integrin ALPHA4 antagonist for use in treating ocular inflammatory conditions” (AXEROVISION, INC., priority 2015, dated 2019)

What was measured:
[1] = tested on: cells of draining cervical lymph nodes; assay: Flow cytometry of draining cervical lymph nodes, desiccating stress 1 day; type: in vivo, mouse; conditions: 1 day DS
Experimental: (§1) Female C57BL/6 mice, aged 6 to 8 weeks, were subjected to DS for 5 days (DS5) as described previously (de Paiva et al., 2006b; Niederkorn et al., 2006). Topical bilateral treatment with 1 eye drop per eye (2 μL volume) or subcutaneous injection (4 μL volume), 2 times per day, was initiated on day 1 concurrently with DS and continued through day 4. Treatment with the compound of formula I or dexamethasone phosphate 0.1% was compared to correspondingly treated vehicle controls. Mice were randomized to receive one of the test articles. Control mice were kept in a non-stressed (NS) environment maintained at 50-75% relative humidity without exposure to airflow or scopolamine and were not treated with test or control article. Treatment effects were assessed on corneal staining with Oregon Green Dextran (OGD); expression of inflammatory markers in ocular surface tissues by real time PCR; cell population analysis in draining cervical lymph nodes by FACS analysis; conjunctival T cell infiltration by immunohistochemistry.
Cervical draining lymph nodes (CLN) were surgically excised, placed in a round culture plate with ˜8 mL of complete RPMI media and smashed between two frosted slides.
Single-cell suspensions of CLN from C57BL/6 mice, treated under DS conditions for 1 day, were prepared, centrifuged and sequentially filtered, as previously described (de Paiva et al., 2009a). Subsequently 1.0 mL of ACT solution was added for 30 seconds followed by 2.0 mL of complete RPMI. The cells were once again centrifuged and the supernatant aspirated. Cells were then re-suspended in 2.0 mL of complete RPMI and prepared for counting. Ten μL of Trypan Blue were used for counting and the cells were divided in tubes at 1×10^6 cells/mL. Subsequently, the cells were incubated on ice in 20 μL unconjugated anti-mouse CD16/CD32 (BD Pharmingen, San Diego, Calif.) followed by 80 μL of directly conjugated primary antibody or isotype. Finally the samples were washed with 1 mL PBS/1% FBS, centrifuged and re-suspend in 0.3 mL PBS/1% FBS containing 1:1000 of PI. The samples were stored at 4° C. until the analysis was performed with an A BD LSRII Benchtop cytometer. The data was analysed using BD Diva Software (BD Pharmingen) and FlowJo (TreeStar Inc).
Due to skewed distribution of OGD data, the analysis was done on the log 10 scale to make the data more normally distributed. Log 10 OGD data was averaged across two observers and the left and right eyes. The mixed effects ANOVA model included treatment group as a fixed effect and week as a random effect. 95% and 99% confidence intervals were constructed for the disease (5 day DS vs untreated group kept in separate vivarium) and compound treatment effects (treatment vs vehicle). As these comparisons were all pre-planned (comparing each treatment to its vehicle group), no adjustment was made for multiplicity. Log 10 scale treatment effect estimates and confidence limits were converted back to the original OGD scale, thus representing the estimate for the ratio of group geometric means and their confidence limits. For gene expression analysis, an unpaired T test was performed to compare drug and vehicle treatment. For flow cytometry analysis, a 2-way ANOVA with fixed treatment and random experiment effects was employed to test the treatment differences. The analysis was followed by Dunnett's multiple comparison procedure to compare each of the treatment groups with the vehicle group. T cell density was calculated for each section and averaged across sections for each animal. As the distribution of average cell density data was non-normal, it was analyzed by using non-parametric methods (Kruskal-Wallis procedure, followed by Dunn's multiple comparisons technique).
The draining CLN are an integral part of the immune cycle in DED (Pflugfelder et al., 2008; Schaumburg et al., 2011). […]

[2] = tested on: C57BL/6 mice subjected to desiccating stress; assay: Corneal OGD staining in murine desiccating stress model; type: in vivo, mouse; conditions: topical bilateral 2 times per day, 5 days DS, vs vehicle (GW559090 1-30 mg/mL; Dex 0.1%)
Experimental: as §1
On the morning of the 5th day, mice received one s.c. dose of scopolamine. Two hours later corneal staining was assessed using Oregon Green Dextran (OGD-488), which is a conjugated fluorescent dye of a 70 kDa molecular size (Invitrogen-Molecular Probes) as previously described (de Paiva et al., 2006b). The procedure consisted of instillation of 0.5 μL of OGD on the cornea using a glass capillary pipette, 1 minute before euthanasia. Mice were euthanized by inhalation of isoflurane gas followed by cervical dislocation. Eyes were then rinsed with 2 mL of BSS. Excess liquid was carefully blotted from the ocular surface with filter papers without touching the cornea. Digital pictures of both eyes were taken under 470 nm excitation and 488 nm emission wave lengths using a Nikon SMZ-1500 stereo microscope, with an exposure time of 2 seconds. Both eyes from each animal were evaluated; the right eye always first followed by the left eye. The mean intensity in the central cornea was evaluated from digital images using NIS Elements (version 3.0) by placing a fixed region of interest (a 2-mm diameter circle) on the central cornea. The mean intensity of the fluorescence was read by the software and stored in a database (Excel, Microsoft). This fluorescence measurement in the central ring was done independently by 2 masked observers, for each mouse eye. By the conclusion of the experiment, results were averaged from both observers using all data collected during all study weeks (Excel, Microsoft). Results are presented as geometric mean±95% confidence interval of gray levels.
Due to skewed distribution of OGD data, the analysis was done on the log 10 scale to make the data more normally distributed. Log 10 OGD data was averaged across two observers and the left and right eyes. The mixed effects ANOVA model included treatment group as a fixed effect and week as a random effect. 95% and 99% confidence intervals were constructed for the disease (5 day DS vs untreated group kept in separate vivarium) and compound treatment effects (treatment vs vehicle). As these comparisons were all pre-planned (comparing each treatment to its vehicle group), no adjustment was made for multiplicity. […] T cell density was calculated for each section and averaged across sections for each animal. […]

dry eye patients = conditions: delivered topically; cited from earlier work
[3] = tested on: multiple sclerosis and Crohn's disease; conditions: in vivo; cited from earlier work
[4] = topical treatment, vs vehicle (GW559090 30 mg/mL, 60 μg per eye; Dex 0.1%), listed as dexamethasone

C[C@@H]1C[C@H]2[C@@H]3CCC4=CC(=O)C=C[C@]4(C)[C@@]3(F)[C@@H](O)C[C@]2(C)[C@@]1(O)C(=O)COP(=O)(O)O [Dex, Dexamethasone phosphate, reference compound]
CD4+ and CD8+ T cells in draining lymph nodes [1]: nor did treatment with the compound of formula I or dexamethasone decrease the number of T cells
CD11c+ dendritic cells in draining cervical lymph nodes [1, 4]: no significant effect
CD11c+/MHC II+ dendritic cells in draining cervical lymph nodes [1, 4]: no significant effect
CD11c+ dendritic cells in draining cervical lymph nodes ([1]; topical treatment, vs vehicle (GW559090 30 mg/mL, 60 μg per eye; Dex 0.1%), listed as dexamethasone phosphate): Neither systemic treatment with the compound of formula I nor topical treatment with dexamethasone phosphate produced the same effect
OGD intensity score (corneal staining / corneal barrier disruption) [2]: significantly improved
OGD intensity score (corneal staining / corneal barrier disruption) ([2]; listed as dexamethasone): decreased

CS(=O)(=O)c1cccc(C[C@H](NC(=O)c2c(Cl)cc3c(c2Cl)CCN(C(=O)c2ccc4ccoc4c2)C3)C(=O)O)c1 [Lifitegrast, (2S)-2-[[2-(1-benzofuran-6-carbonyl)-5,7-dichloro-3,4-dihydro-1H-isoquinoline-6-carbonyl]amino]-3-(3-methylsulfonylphenyl)propanoic acid]
Corneal staining (dry eye patients): reduce
Symptoms (dry eye patients): improve

Natalizumab: an antibody directed against the integrin α4 subunit
Inflammation and clinical outcomes [3]: profoundly inhibit inflammation and improve clinical outcomes
